The text below walks through data of patent US20230339856A1, “NOVEL PHARMACOLOGICAL CHAPERONE COMPOUNDS OF HUMAN ACID ALPHA-GLUCOSIDASE AND THE THERAPEUTIC USE THEREOF” (UNIVERSITÉ GRENOBLE ALPES, priority 2020, published 2023).

Each structure is given as a SMILES string. Read-outs that look alike come from different tables or passages of the source.

Assay [1] has as its target T1, rhGAA (Homo sapiens (Human), UniProt P10253). The note with it: literature value, cited from earlier work; for rhGAA ΔTm: pH 4.3, measured at [compound]=10 times the value of Ki.
The target of assay [2] is T2, α-glucosidase II of the endoplasmic reticulum (GANAB) (Homo sapiens (Human), UniProt Q14697). The note with it: literature value; cited from earlier work.
T2 sequence (Q14697 29-944): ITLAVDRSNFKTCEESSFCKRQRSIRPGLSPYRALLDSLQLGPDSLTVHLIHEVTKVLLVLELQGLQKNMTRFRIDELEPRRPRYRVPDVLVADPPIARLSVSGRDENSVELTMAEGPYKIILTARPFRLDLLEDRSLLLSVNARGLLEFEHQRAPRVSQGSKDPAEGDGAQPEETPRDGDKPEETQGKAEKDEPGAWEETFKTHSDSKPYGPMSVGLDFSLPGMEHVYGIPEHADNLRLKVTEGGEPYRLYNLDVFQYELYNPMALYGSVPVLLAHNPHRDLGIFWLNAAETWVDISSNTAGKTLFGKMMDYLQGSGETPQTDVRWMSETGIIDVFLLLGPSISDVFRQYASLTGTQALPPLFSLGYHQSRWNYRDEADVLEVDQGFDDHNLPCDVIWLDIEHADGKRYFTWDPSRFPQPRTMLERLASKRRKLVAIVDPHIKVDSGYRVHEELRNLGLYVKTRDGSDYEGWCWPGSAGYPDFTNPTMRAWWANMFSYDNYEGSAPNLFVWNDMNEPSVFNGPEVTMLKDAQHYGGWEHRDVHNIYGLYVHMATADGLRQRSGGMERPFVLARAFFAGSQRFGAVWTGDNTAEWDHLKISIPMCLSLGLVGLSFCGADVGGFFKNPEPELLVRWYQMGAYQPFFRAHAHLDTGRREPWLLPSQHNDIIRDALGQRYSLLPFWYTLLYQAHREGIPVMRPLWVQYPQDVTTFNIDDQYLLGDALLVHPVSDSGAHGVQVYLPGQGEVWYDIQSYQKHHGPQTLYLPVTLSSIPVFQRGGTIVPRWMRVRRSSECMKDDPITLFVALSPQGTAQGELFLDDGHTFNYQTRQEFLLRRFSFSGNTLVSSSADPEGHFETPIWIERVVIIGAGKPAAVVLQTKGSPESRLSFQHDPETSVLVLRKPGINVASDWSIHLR
T2 sequence (P14314 15-528 partner): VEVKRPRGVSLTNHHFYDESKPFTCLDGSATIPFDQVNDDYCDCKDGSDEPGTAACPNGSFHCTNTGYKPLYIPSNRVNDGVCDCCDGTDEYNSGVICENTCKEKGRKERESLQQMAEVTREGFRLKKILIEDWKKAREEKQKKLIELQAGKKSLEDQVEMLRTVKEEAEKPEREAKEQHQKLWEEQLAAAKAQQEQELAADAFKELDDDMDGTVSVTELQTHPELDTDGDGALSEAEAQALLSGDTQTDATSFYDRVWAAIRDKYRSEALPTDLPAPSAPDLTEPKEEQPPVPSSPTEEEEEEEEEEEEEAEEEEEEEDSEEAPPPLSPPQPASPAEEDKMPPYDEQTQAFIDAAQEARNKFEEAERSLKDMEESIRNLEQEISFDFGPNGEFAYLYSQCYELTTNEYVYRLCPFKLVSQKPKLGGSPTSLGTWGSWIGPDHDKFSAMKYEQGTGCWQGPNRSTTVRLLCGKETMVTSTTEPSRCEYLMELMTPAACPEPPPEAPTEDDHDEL
In assay [3] the target is T3, recombinant human acid α-glucosidase (rhGAA) (Homo sapiens (Human), UniProt P10253). Nature of the assay: Inhibition of rhGAA determined by Fluopol-ABPP. In kind it is binding. The following applies: McIlvaine buffer pH 5.0, 37° C., TAMRA probe. An excerpt:
The inhibiting activity on recombinant human acid α-glucosidase (rhGAA) of the compounds is implemented using the Fluopol-ABPP method (Fluorescence Polarization Activity Based Protein Profiling) described in the publication of Lahav et al., 2017, J. Am. Chem. Soc. 139: 14192-14197. This technique, based on the competition between an inhibitor and a fluorescent probe capable of binding covalently to the active site of an enzyme, makes it possible to measure the affinity of this inhibitor for the active site of the rhGAA enzyme used for these experiments by the laboratory of Professors Herman S. Overkleeft and Johanes M. F. G. Aerts, Leiden Institute of Chemistry, Leiden University (NL), is the enzyme marketed under the name Myozyme®. […] The […] (TAMRA) fluorescent probe in solution (25 nM) in the buffer is next added to the mixture. After 4 hours, the samples are irradiated with a polarized light (λ=530 nm) and the fluorescence emitted (λ=580 nm) is measured by means of an Infinite® M1000Pro (Tecan) spectrofluorimeter. For each concentration of inhibitor, the percentage of inhibition of the enzyme is determined by the formula:
%Inhibition=[Fmeasured−Fcontrol1)/Fcontro2)×100
The IC50 values are calculated by a non-linear regression of the % inhibition as a function of the concentration [I] by means of the GraphPad Prism 6.0 software. The results are a mean of three identical experiments (triplicates).

Assay [4] deals with T3, recombinant human acid α-glucosidase (rhGAA). Nature of the assay: Inhibition of rhGAA determined by measuring the residual activity in vitro. The following applies: sodium acetate buffer pH 4.0, 37° C.; for IC50: 4-nitrophenyl-α-D-glucopyranoside substrate. The format is biochemical.
Assay [5] deals with human non-lysosomal β-glucosylceramidase (GBA2) (Homo sapiens (Human), UniProt Q9HCG7). Nature of the assay: Inhibition of GBA2 in lysates of HEK298T cells over-expressing GBA2. The format is biochemical. The note with it: pH 5.8, 4-methyl-umbelliferone-β-D-glucopyranoside 3.0 mM, 1 hour. The protocol: (§1) The selectivity of the compounds was evaluated in the laboratory of Professors Herman S. Overkleeft and Johanes M. F. G. Aerts, Leiden Institute of Chemistry, Leiden University (NL). The enzymes used for determining the selectivity of inhibition of the compounds with respect to various human enzymes are the α-glucosidase II of the endoplasmic reticulum (GANAB), recombinant human lysosomal β-glucocerebrosidase (GBA1), human non-lysosomal β-glucosylceramidase (GBA2) and β-glucosylceramide synthase (GCS). The inhibiting activity of the compounds on these various enzymes is determined as described in the publication by Artola et al., 2017, ACS Cent. Sci. 3: 784-793. The enzyme GBA1 sold under the name Cerezyme® and the enzyme rhGAA sold under the name Myozyme® are used. The human GANAB enzyme used for this study is that of fibroblasts of patients suffering from Pompe disease diagnosed as lacking active GAA and voluntary donors. These fibroblasts were cultivated on an HAMF12-DMEM medium (Sigma) supplemented by 10% (v/v) FCS (fetal calf serum). The GBA2 enzyme was over-expressed in HEK298T cells cultivated on a DMEM medium enriched with glucose (Gibco) supplemented by 10% NBS (newborn bovine serum) and 100 units/mL of penicillin/streptomycin (Gibco) and 5% CO2 at 37° C. The activity of the compounds on human β-glucosylceramide synthase (GCS) is evaluated in situ on cells of the RAW 264.7 type cultivated on an RPMI medium (Gibco) supplemented by 10% FCS, 1 mM of glutamax, 100 units/mL of penicillin/streptomycin (Gibco) and 5% CO2 at 37° C.
Sequence of human non-lysosomal β-glucosylceramidase (GBA2) (Q9HCG7 whole entry): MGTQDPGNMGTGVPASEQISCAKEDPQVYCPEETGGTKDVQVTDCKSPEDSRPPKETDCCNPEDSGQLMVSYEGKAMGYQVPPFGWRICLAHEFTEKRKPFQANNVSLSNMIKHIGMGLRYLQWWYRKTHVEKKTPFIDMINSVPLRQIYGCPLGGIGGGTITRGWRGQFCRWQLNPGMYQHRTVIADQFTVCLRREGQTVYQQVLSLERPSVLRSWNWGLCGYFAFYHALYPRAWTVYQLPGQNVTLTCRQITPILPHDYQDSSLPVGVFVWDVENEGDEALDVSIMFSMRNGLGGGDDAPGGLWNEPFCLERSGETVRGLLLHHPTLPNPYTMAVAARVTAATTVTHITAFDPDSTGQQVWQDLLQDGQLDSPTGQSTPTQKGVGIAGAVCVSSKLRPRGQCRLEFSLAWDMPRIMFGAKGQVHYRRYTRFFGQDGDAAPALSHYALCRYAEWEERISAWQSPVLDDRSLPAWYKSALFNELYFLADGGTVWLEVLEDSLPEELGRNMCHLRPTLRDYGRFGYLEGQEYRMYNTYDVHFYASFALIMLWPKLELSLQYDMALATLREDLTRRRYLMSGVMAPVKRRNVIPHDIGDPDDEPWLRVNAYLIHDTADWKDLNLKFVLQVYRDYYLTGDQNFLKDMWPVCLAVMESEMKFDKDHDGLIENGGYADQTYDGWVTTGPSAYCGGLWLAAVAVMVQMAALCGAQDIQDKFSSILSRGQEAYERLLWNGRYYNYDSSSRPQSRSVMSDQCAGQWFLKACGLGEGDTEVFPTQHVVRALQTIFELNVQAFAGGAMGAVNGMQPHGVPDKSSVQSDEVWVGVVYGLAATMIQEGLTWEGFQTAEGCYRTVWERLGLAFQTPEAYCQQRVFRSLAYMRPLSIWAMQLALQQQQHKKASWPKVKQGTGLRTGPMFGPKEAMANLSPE
(§2) These cell lysates are homogenized using a SilentCrusher grinder (Heidolph®), and then subjected to ultracentrifugation at 32,000 rpm for 30 minutes at 4° C. The total protein concentration is determined in accordance with the Bradford method (Bradford, 1976, Anal. Biochem. 72: 248-254), using a Bradford BioRad Quick Start® kit (Pierce) and BSA (Sigma). The lysates are next aliquoted and stored at −80° C. before use.
The residual activity of GBA2 in the presence of the compounds is determined after pre-incubation for 30 minutes of the homogenates of HEK298T cells over-expressing GBA2 with an inhibitor of GBA1, conduritol β-epoxide (Sigma), at a concentration of 1 mM.

Assay [6] addresses T1, rhGAA. Nature of the assay: Thermal stabilization of rhGAA by DSF (differential scanning fluorimetry). In kind it is binding. How it is done: The stabilization of rhGAA in the presence of the compounds is determined in accordance with the method described in the publication of Niesen et al., 2007, Nat. Protoc. 2: 2212-2221. The rhGAA enzyme (2.5 μg, 0.1 mg/mL) is incubated in the absence and in the presence of each compound (at a concentration [I]=100 μM), of SYPRO® orange dye (Life Technologies), and of sodium phosphate buffer (25 mM) and of NaCI (150 mM), pH 7.4 or of sodium acetate buffer (25 mmol) and of NaCl (150 mM), pH 4.0. The thermal stability of the enzyme in these various conditions is evaluated by DSF (differential scanning fluorimetry) by varying the temperature by 1° C./min over an interval of 25 to 95° C., and measuring the fluorescence of the SYPRO® orange dye every minute by means of a Real-Time Cycler spectrofluorimeter (Biorad). The relative fluorescence is determined by comparing each fluorescence value measured with that of the maximum fluorescence value of the SYPRO® orange dye for each scan. The results are a mean of three identical experiments (triplicates).

In assay [7] the target is T2, α-glucosidase II of the endoplasmic reticulum (GANAB). Nature of the assay: Inhibition of GANAB in lysates of fibroblasts of Pompe patients. The note with it: pH 7.0, 4-methyl-umbelliferone-α-D-glucopyranoside 2.4 mM, 2 hours. In kind it is biochemical. The protocol:
as §1, §2

Assay [8] concerns the target recombinant human lysosomal β-glucocerebrosidase (GBA1) (Homo sapiens (Human), UniProt P04062, R534H). Nature of the assay: Inhibition of GBA1 (Cerezyme). In kind it is biochemical. The note with it: pH 5.2, 4-methyl-umbelliferone-β-D-glucopyranoside 3.0 mM, 30 minutes. How it is done: as §1
Assay [9] concerns the target β-glucosylceramide synthase (GCS) (Mus musculus (Mouse), UniProt O88693). Nature of the assay: Inhibition of GCS in situ in RAW 264.7 cells. The note with it: pH 7.0, 1 μM NBD-ceramide. The format is cell-based. The protocol:
as §1, §2
The residual activity of GCS in the presence of the compounds is determined after pre-incubation for 1 hour of the homogenates of RAW 264.7 cells with an inhibitor of GBA1, conduritol β-epoxide (Sigma), at a concentration of 300 μM.
The I50 values for the GCS enzyme are determined in situ in the cell culture medium at pH 7.0 using 1 μM of NBD-ceramide (N-[12-[(7-nitro-2-1,3-benzoxadiazol-4-yl)amino]dodecanoyl]-D-erythro-sphingosine) as substrate, as described in the aforementioned publication of Lahav et al.

Sequence of recombinant human lysosomal β-glucocerebrosidase (GBA1) (P04062 40-536 R534H limits assumed): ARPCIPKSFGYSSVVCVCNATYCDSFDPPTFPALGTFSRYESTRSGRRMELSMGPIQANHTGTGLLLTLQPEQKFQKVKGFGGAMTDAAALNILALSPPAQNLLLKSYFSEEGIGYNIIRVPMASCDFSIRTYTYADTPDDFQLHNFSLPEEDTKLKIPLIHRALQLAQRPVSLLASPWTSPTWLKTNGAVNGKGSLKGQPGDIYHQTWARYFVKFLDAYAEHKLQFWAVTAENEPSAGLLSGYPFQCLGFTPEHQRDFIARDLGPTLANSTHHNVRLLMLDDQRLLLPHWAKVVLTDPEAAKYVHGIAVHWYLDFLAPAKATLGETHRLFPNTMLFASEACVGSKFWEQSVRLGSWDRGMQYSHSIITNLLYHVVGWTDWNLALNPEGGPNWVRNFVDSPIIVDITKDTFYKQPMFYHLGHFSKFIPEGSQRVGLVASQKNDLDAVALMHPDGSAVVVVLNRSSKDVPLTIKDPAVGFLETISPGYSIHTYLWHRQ
Sequence of β-glucosylceramide synthase (GCS) (O88693 whole entry): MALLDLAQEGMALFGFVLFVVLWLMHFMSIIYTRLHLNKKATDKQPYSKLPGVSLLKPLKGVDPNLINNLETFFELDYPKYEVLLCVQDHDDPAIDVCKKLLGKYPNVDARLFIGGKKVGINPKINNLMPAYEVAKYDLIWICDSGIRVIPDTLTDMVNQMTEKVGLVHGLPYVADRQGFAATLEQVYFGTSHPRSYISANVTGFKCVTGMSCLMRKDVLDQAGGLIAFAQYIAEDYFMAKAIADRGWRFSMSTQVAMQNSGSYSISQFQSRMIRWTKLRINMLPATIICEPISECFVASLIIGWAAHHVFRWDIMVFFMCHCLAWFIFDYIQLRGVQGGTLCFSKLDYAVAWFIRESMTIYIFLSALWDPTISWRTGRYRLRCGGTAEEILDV

For the molecule `OC[C@H]1NC[C@H](O)[C@@H](O)[C@@H]1O` [DNJ, deoxynojirimycin], in assay [1], the “rhGAA ΔTm” value is reported as 2.7 (pH 4.3)*^b ° C and the “rhGAA ΔTm at pH 7.4” value was 15^c^ ° C.
In the case of `CCCCN1C[C@H](O)[C@@H](O)[C@H](O)[C@H]1CO` [NB-DNJ], in [1], the “rhGAA ΔTm” value is 6.2 (pH 4.3)*^b ° C and the “rhGAA ΔTm at pH 7.4” value is reported as 12^d^ ° C. The IC50 in assay [2] was 15 µM.
`CCC[C@]1(CO)NC[C@H](O)[C@@H](O)[C@@H]1O` [(IIb), (2R,3R,4R,5S)-2-(hydroxymethyl)-2-propylpiperidine-3,4,5-triol]: the IC50 was 0.39 µM in [3]; 104 µM in [4]; greater than 1000 µM in [5]; greater than 100 µM in [7]; greater than 1000 µM in assay [8]; greater than 50 µM in [9]. Further, the Ki in assay [4] was 13 µM. In addition, the ΔTm at 100 µM worked out at 7.8 °C in assay [6] ([I]=100 μM, pH 4.0, read-out: rhGAA ΔTm at pH 4.0) and 11.5 °C in [6] ([I]=100 μM, pH 7.4, read-out: rhGAA ΔTm at pH 7.4).
Regarding `OC[C@@]12CCCN1C[C@H](O)[C@@H](O)[C@@H]2O` [(IIg), (6S, 7R, 8R, 8aR)-8a-(hydroxymethyl)-octahydroindolizine-6,7,8-triol], the IC50 in [3] is 0.46 µM; in assay [4], 387 µM; in assay [5], greater than 1000 µM; in assay [7] it was greater than 100 µM; in assay [8], greater than 1000 µM; in assay [9], greater than 50 µM. Besides, the shift in melting temperature (ΔTm) at 100 µM was determined as 6.7 °C in assay [6] (read-out: rhGAA ΔTm at pH 4.0) and 14.4 °C in assay [6] (read-out: rhGAA ΔTm at pH 7.4).

One may read the IC50 as the concentration that gives 50% inhibition. A word on the Ki: it is a measure of affinity in units of concentration, obtained from inhibition or displacement. As usually defined, the ΔTm is the shift of the melting midpoint relative to a reference.
